Test systems include SNB-75 CNS; A498 renal; RXF 393 renal; PC-3 prostate; SNB-19 CNS; UACC-257 melanoma; A549 NSCLC; CCRF-CEM leukemia; SK-MEL-28 melanoma; UACC-62 melanoma.
Holding throughout (test): NCI anticancer screen, dose series, 48 h

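Grown in 96-well plates, cells were treated for 48 hours with each compound at five concentrations. Insufficient inhibition: endpoint recorded as highest concentration tested. The concentration for 50% growth inhibition is given as GI50. TGI: total growth inhibition.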

For the compound `CC(C)OC(=O)NNc1c(Cl)cc(Cl)cc1Cl`, the TGI with SNB-75 CNS is greater than 100 µM; with A498 renal, greater than 100 µM; with RXF 393 renal it was 69.5 µM; in the test with PC-3 prostate, greater than 100 µM; in the test with SNB-19 CNS, greater than 100 µM; in the test on UACC-257 melanoma, greater than 100 µM. Moreover, the TGI in the test on A549 NSCLC, with CCRF-CEM leukemia, with SK-MEL-28 melanoma and in the test with UACC-62 melanoma was greater than 100 µM in each case.
On to `CCc1n(Cc2ccc3ccccc3c2)cc[n+]1Cc1ccc2ccccc2c1`, for which the GI50 in the test with SNB-75 CNS is 0.335 µM; with A498 renal, 1.13 µM; in the test with RXF 393 renal, 1.15 µM; with PC-3 prostate it was 0.699 µM; with SNB-19 CNS, 0.492 µM; in the test with UACC-257 melanoma, 0.554 µM. The GI50 is 2.59 µM with A549 NSCLC, 0.922 µM with CCRF-CEM leukemia, 0.581 µM in the test with SK-MEL-28 melanoma and 0.507 µM in the test with UACC-62 melanoma. Further, the TGI was 1.71 µM in the test on SNB-75 CNS; 4.15 µM in the test on A498 renal; 2.63 µM in the test on RXF 393 renal; 2.49 µM in the test with PC-3 prostate; 1.82 µM in the test with SNB-19 CNS; 3.27 µM in the test with UACC-257 melanoma. Further, the TGI with A549 NSCLC came out at 13.9 µM; in the test with CCRF-CEM leukemia, 4.34 µM; with SK-MEL-28 melanoma, 2.06 µM; in the test on UACC-62 melanoma, 2 µM.
Take `O=[N+]([O-])c1cc2c(ccc3ccccc32)o1`: the GI50 in the test on SNB-75 CNS was 0.497 µM; with A498 renal it was 0.127 µM; with RXF 393 renal it was 0.311 µM; in the test with PC-3 prostate, 1.85 µM; with SNB-19 CNS, 0.966 µM; with UACC-257 melanoma it was 0.188 µM. For the same compound, the GI50 is 0.413 µM with A549 NSCLC, 0.47 µM in the test on CCRF-CEM leukemia, 0.21 µM with SK-MEL-28 melanoma and 0.426 µM in the test with UACC-62 melanoma. Further, the TGI in the test with SNB-75 CNS was 2.27 µM; in the test on A498 renal, 0.277 µM; with RXF 393 renal, 0.789 µM; in the test on PC-3 prostate, 14.5 µM; in the test on SNB-19 CNS, greater than 35.4 µM; in the test on UACC-257 melanoma, 0.417 µM. The TGI with A549 NSCLC is 3.12 µM; in the test on CCRF-CEM leukemia it was greater than 35.6 µM; in the test on SK-MEL-28 melanoma, 0.585 µM; with UACC-62 melanoma it was 1.72 µM.
As for `COc1cccc(C2=C(c3cn(C)c4c(C)cccc34)C(=O)NC2=O)c1`, the GI50 with SNB-75 CNS was 0.909 µM; in the test with A498 renal it was 5.89 µM; in the test with RXF 393 renal it was 8.58 µM; with PC-3 prostate, greater than 18.3 µM; in the test with SNB-19 CNS it was greater than 25 µM; with UACC-257 melanoma, greater than 25 µM. Further, the GI50 was greater than 23.2 µM with A549 NSCLC, greater than 25 µM in the test with CCRF-CEM leukemia, greater than 25 µM in the test on SK-MEL-28 melanoma and greater than 22.1 µM in the test with UACC-62 melanoma. For the same compound, the TGI with SNB-75 CNS was greater than 25 µM; in the test with A498 renal, greater than 21.9 µM; in the test on RXF 393 renal, greater than 25 µM; in the test with PC-3 prostate it was greater than 25 µM; in the test with SNB-19 CNS, greater than 25 µM; in the test on UACC-257 melanoma it was greater than 25 µM. Also, the TGI with A549 NSCLC, in the test on CCRF-CEM leukemia, with SK-MEL-28 melanoma and in the test with UACC-62 melanoma was greater than 25 µM throughout.
For the compound `N#C/C(=C\c1ccccn1)c1nc2ccccc2o1`, the GI50 in the test on SNB-75 CNS was 21.8 µM; in the test on A498 renal, 30.4 µM; in the test with RXF 393 renal it was 28.3 µM; in the test on PC-3 prostate it was 17.6 µM; in the test on SNB-19 CNS it was 17 µM; in the test on UACC-257 melanoma, 35.8 µM. Moreover, the GI50 with A549 NSCLC was 36.5 µM; in the test on CCRF-CEM leukemia, 1.4 µM; in the test with SK-MEL-28 melanoma it was 20.7 µM; in the test with UACC-62 melanoma it was 21.3 µM. In addition, the TGI in the test on SNB-75 CNS is greater than 100 µM; in the test on A498 renal it was 99.2 µM; in the test with RXF 393 renal it was 82.2 µM; in the test on PC-3 prostate, 50.5 µM; in the test on SNB-19 CNS, 40 µM; in the test with UACC-257 melanoma it was greater than 100 µM. Moreover, the TGI in the test with A549 NSCLC is greater than 100 µM; with CCRF-CEM leukemia it was 69.6 µM; in the test on SK-MEL-28 melanoma, 45 µM; in the test on UACC-62 melanoma it was 46.2 µM.
For the compound `Cc1nc2ccccc2c(/C=C/c2ccc(F)cc2)c1C(=O)/C=C/c1ccccc1`, the GI50 with SNB-75 CNS is 8.15 µM; in the test with A498 renal, 2.22 µM; in the test on RXF 393 renal it was 1.74 µM; with PC-3 prostate, 2.53 µM; in the test with SNB-19 CNS, 1.88 µM; in the test with UACC-257 melanoma it was 2.82 µM. Besides, the GI50 in the test with A549 NSCLC was 2.88 µM; in the test with CCRF-CEM leukemia, 2.44 µM; in the test with SK-MEL-28 melanoma, 2.36 µM; in the test with UACC-62 melanoma it was 1.86 µM. Further, the TGI with SNB-75 CNS is greater than 100 µM; with A498 renal it was 4.62 µM; in the test on RXF 393 renal, 3.26 µM; with PC-3 prostate, 8.81 µM; in the test on SNB-19 CNS, 4.02 µM; in the test on UACC-257 melanoma it was 8.65 µM. The TGI in the test with A549 NSCLC is 10.3 µM; in the test with CCRF-CEM leukemia it was greater than 100 µM; with SK-MEL-28 melanoma it was 5.67 µM; with UACC-62 melanoma, 4.04 µM.
Regarding `O=NN(CC(=O)NNc1ccccc1)CC(=O)NNc1ccccc1`, the GI50 in the test on SNB-75 CNS is greater than 45.4 µM; in the test with A498 renal it was greater than 100 µM; in the test with RXF 393 renal, greater than 100 µM; in the test on PC-3 prostate, 5.64 µM; in the test with SNB-19 CNS it was greater than 100 µM; in the test with UACC-257 melanoma it was 22.4 µM. For the same compound, the GI50 was greater than 23.1 µM with A549 NSCLC, 5 µM in the test with CCRF-CEM leukemia and 0.479 µM in the test on UACC-62 melanoma. Further, the TGI in the test on SNB-75 CNS, in the test with A498 renal, in the test with RXF 393 renal, in the test with PC-3 prostate, in the test with SNB-19 CNS and in the test on UACC-257 melanoma was greater than 100 µM each time. Besides, the TGI in the test with A549 NSCLC was greater than 100 µM; with CCRF-CEM leukemia it was greater than 100 µM; in the test on SK-MEL-28 melanoma, greater than 100 µM; in the test with UACC-62 melanoma, 7.9 µM.
As for `CCn1cnc(C[C@H](NC(=O)[C@@H](NC(=O)Nc2cc(C(F)(F)F)cc(C(F)(F)F)c2)C(C)(C)C)C(=O)OC)c1`, the GI50 with SNB-75 CNS, with A498 renal, in the test on RXF 393 renal, with PC-3 prostate, in the test on SNB-19 CNS and in the test with UACC-257 melanoma was greater than 10 µM in each case. In addition, the GI50 with A549 NSCLC, in the test with CCRF-CEM leukemia, with SK-MEL-28 melanoma and in the test on UACC-62 melanoma was greater than 10 µM in each case. Also, the TGI in the test on SNB-75 CNS, with A498 renal, in the test on RXF 393 renal, in the test with PC-3 prostate, in the test with SNB-19 CNS and with UACC-257 melanoma was greater than 10 µM in each case. Further, the TGI in the test on A549 NSCLC, in the test with CCRF-CEM leukemia, in the test with SK-MEL-28 melanoma and in the test with UACC-62 melanoma was greater than 10 µM in each case.
Regarding `Cc1ccc(-c2csc3ncnc(Nc4cccc(O)c4)c23)cc1`, the GI50 was 39.6 µM with SNB-75 CNS; 30.8 µM with A498 renal; 48.2 µM with RXF 393 renal; 16.3 µM with PC-3 prostate; 50.7 µM in the test on SNB-19 CNS; 17.5 µM with UACC-257 melanoma. Also, the GI50 in the test on A549 NSCLC is 41.8 µM; with CCRF-CEM leukemia, 21 µM; with SK-MEL-28 melanoma, 43.1 µM; in the test with UACC-62 melanoma, 28 µM. Further, the TGI in the test on SNB-75 CNS was greater than 100 µM; in the test on A498 renal it was 66.5 µM; in the test on RXF 393 renal it was 81.2 µM; with PC-3 prostate it was 37.1 µM; in the test on SNB-19 CNS, greater than 100 µM; in the test with UACC-257 melanoma it was 38.9 µM. Also, the TGI in the test with A549 NSCLC is 92.5 µM; with CCRF-CEM leukemia, 91.1 µM; in the test on SK-MEL-28 melanoma it was greater than 100 µM; with UACC-62 melanoma it was 73 µM.
Consider `O=C1OC(=O)c2c1cc1cc3c(cc1c2-c1ccc2c(c1)OCO2)OCO3`, for which the TGI with SNB-75 CNS, in the test with A498 renal, in the test with RXF 393 renal, in the test with PC-3 prostate, in the test with SNB-19 CNS and in the test on UACC-257 melanoma was greater than 100 µM each time. Moreover, the TGI in the test with A549 NSCLC, with CCRF-CEM leukemia, in the test with SK-MEL-28 melanoma and in the test with UACC-62 melanoma was greater than 100 µM each time.
As to `COc1cc(/C=C/C(=O)c2cccc(-n3cc(-c4ccccc4)[nH]c3=O)c2)ccc1O`, the GI50 in the test on SNB-75 CNS was 3.21 µM; in the test on A498 renal, 1.68 µM; in the test on RXF 393 renal, 1.78 µM; with PC-3 prostate, 2.87 µM; in the test with SNB-19 CNS, 3.07 µM; with UACC-257 melanoma, 4.88 µM. Besides, the GI50 in the test with A549 NSCLC is 4.18 µM; in the test with CCRF-CEM leukemia, 1.76 µM; with SK-MEL-28 melanoma it was 0.722 µM; in the test with UACC-62 melanoma, 2.33 µM. Besides, the TGI with SNB-75 CNS was 12.3 µM; with A498 renal, 3.87 µM; in the test with RXF 393 renal it was 4.12 µM; in the test with PC-3 prostate, 12 µM; in the test with SNB-19 CNS it was 11 µM; in the test on UACC-257 melanoma, 17.1 µM. Also, the TGI with A549 NSCLC came to 17.8 µM; in the test on CCRF-CEM leukemia it was 5.33 µM; in the test with SK-MEL-28 melanoma it was 3.07 µM; in the test on UACC-62 melanoma, 7.74 µM.
As for `Cc1nc2sc(C(=O)Nc3cccc4c3OCCO4)c(N)c2cc1C(C)O` (configuration not stated), the GI50 in the test with SNB-75 CNS is 1.81 µM; in the test with A498 renal it was 2.16 µM; in the test with RXF 393 renal, 2.92 µM; in the test on PC-3 prostate it was 5 µM; with SNB-19 CNS it was 6.8 µM; with A549 NSCLC, 6.25 µM. Also, the GI50 in the test with CCRF-CEM leukemia was 3.5 µM; with SK-MEL-28 melanoma, greater than 100 µM; in the test with UACC-62 melanoma, 2.97 µM. Besides, the TGI in the test with SNB-75 CNS was greater than 100 µM; with A498 renal, 9.05 µM; in the test with RXF 393 renal, greater than 100 µM; in the test on PC-3 prostate, greater than 100 µM; with SNB-19 CNS, greater than 100 µM; in the test with A549 NSCLC, greater than 100 µM. Further, the TGI in the test with CCRF-CEM leukemia, with SK-MEL-28 melanoma and with UACC-62 melanoma was greater than 100 µM in each case.

Values taken from PubChem BioAssay (NCI).
